According to article PMC9572521, “Synthesis, Docking Studies and Pharmacological Evaluation of Serotoninergic Ligands Containing a 5-Norbornene-2-Carboxamide Nucleus” (Molecules, 2022):
Entries after “also recorded” stand apart in the source; their conditions may differ.

Assays:
[1] = system: mice; assay: Chimney test (motor coordination); format: in vivo, mouse; conditions: 60 min before the test
Experimental: The experiments were carried out, in the Experimental Medicine Center of Medical University of Lublin, on six-week-old naive male Swiss mice, weighing 24–30 g. The mice were housed in cages, five individuals per cage in an environmentally controlled rooms (ambient temperature 22 ± 1 °C; relative humidity 50–60%; 12 h light/dark cycle, lights on at 8:00). Standard laboratory food(LSM-Agropol-Motycz, Lublin, Poland) and filtered water were available ad libitum. All the experimental procedures were carried out, according to the National Institute of Health Guidelines for the Care and Use of Laboratory Animals and to the European Community Council Directive for the Care and Use of Laboratory Animals of 22 September 2010 (2010/63/EU) and approved by the Local Ethics Committee for Animal Experimentation in Lublin. The investigated compounds (Norbo-4, Norbo-8, Norbo-10, Norbo-14, Norbo-18 and Norbo-20) in all tests were administered intraperitoneally (i.p.), dissolved in dimethyl sulfoxide (DMSO, final concentration of 0.1%) and then diluted by aqueous solution of 0.5% methylcellulose (tylose) and injected 60 min before the tests. […] All compounds were given in a volume of 10 mL/kg to mice. The control animals received an equivalent volume of the solvent at the respective time before the tests. All the experiments were conducted in the light phase between 09.00 a.m. and 14.00 p.m. The experiments were performed by an observer unaware of the treatment administered. The effects of investigated compounds on motor coordination were evaluated in the rota-rod and chimney tests. In the first test, motor impairments were measured, defined as the inability to keep balance on a rotating rod (at constant speed of 18 rpm) for 1 min. In the second test, motor impairments were assessed by mouse inability to climb up the tube backwards (3 cm in inner diameter, 25 cm long) within 60 s. Before the tests, the animals were trained once a day for 3 days. The animals able to stay on the rotating rod or to leave the chimney for 60 s were approved for experiments.

[2] = biological target: T1, 5-HT1A receptor (Rattus norvegicus, UniProt P19327); assay: Functional 5-HT1A receptor [35S]GTPγS assay (agonist mode); format: biochemical; conditions: [35S]GTPγS, rat hippocampus homogenate;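 further: male Sprague-Dawley rat hippocampal membranes incubated 90 min at 37 °C, bound label counted by scintillation after filtration, non-specific binding defined with 100 µM unlabeled GTPγS, one-site curve fit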
T1 construct: 15 μg/mL of hippocampus homogenate was incubated in triplicate with 0.8 nM; from tissue; host or cells: rat hippocampus homogenate
T1 sequence (P19327 1-422): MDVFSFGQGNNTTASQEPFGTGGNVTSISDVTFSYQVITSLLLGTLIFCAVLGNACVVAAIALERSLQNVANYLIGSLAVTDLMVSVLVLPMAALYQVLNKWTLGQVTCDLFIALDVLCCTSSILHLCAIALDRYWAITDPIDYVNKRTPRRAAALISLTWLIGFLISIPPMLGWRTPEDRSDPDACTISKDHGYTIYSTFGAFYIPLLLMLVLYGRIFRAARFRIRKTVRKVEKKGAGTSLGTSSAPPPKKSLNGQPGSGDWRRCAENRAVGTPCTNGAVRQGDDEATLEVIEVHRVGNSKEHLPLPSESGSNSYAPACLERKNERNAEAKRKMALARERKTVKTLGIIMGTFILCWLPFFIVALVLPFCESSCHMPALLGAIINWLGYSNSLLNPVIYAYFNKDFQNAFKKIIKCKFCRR

[3] = system: mice; assay: Elevated plus-maze test (EPM); format: in vivo, mouse; conditions: 60 min before the test
Experimental: The experiments were carried out, in the Experimental Medicine Center of Medical University of Lublin, on six-week-old naive male Swiss mice, weighing 24–30 g. The mice were housed in cages, five individuals per cage in an environmentally controlled rooms (ambient temperature 22 ± 1 °C; relative humidity 50–60%; 12 h light/dark cycle, lights on at 8:00). Standard laboratory food(LSM-Agropol-Motycz, Lublin, Poland) and filtered water were available ad libitum. All the experimental procedures were carried out, according to the National Institute of Health Guidelines for the Care and Use of Laboratory Animals and to the European Community Council Directive for the Care and Use of Laboratory Animals of 22 September 2010 (2010/63/EU) and approved by the Local Ethics Committee for Animal Experimentation in Lublin. The investigated compounds (Norbo-4, Norbo-8, Norbo-10, Norbo-14, Norbo-18 and Norbo-20) in all tests were administered intraperitoneally (i.p.), dissolved in dimethyl sulfoxide (DMSO, final concentration of 0.1%) and then diluted by aqueous solution of 0.5% methylcellulose (tylose) and injected 60 min before the tests. […] All compounds were given in a volume of 10 mL/kg to mice. The control animals received an equivalent volume of the solvent at the respective time before the tests. All the experiments were conducted in the light phase between 09.00 a.m. and 14.00 p.m. The experiments were performed by an observer unaware of the treatment administered. The EPM studies were carried out on mice according to the method of Lister. The EPM apparatus was made of plexiglass and consisted of two open (30 × 5 cm) and two enclosed (30 × 5 × 15 cm) arms. The arms extended from a central platform of 5 × 5 cm. The apparatus was mounted on a plexiglass base, raising it 38.5 cm above the floor, and illuminated by a red light. The test consisted of placing a mouse in the center of the apparatus (facing an open arm) and allowing it to freely explore. The number of entries into the open arms and the time spent in these arms were scored for a 5 min test period. An entry was defined as placing all four paws within the boundaries of the arm. The following measures were obtained from the test: the total number of arm entries; the percentage of arm entries into the open arms; and the time spent in the open arms expressed as a percentage of the time spent in both the open and closed arms. Anxiolytic activity was indicated by increases in the time spent in open arms and in the number of open arm entries. The total number of entries into either type of arm was used additionally as a measure of overall motor activity.

[4] = biological target: T2, human 5-HT2C receptor (Homo sapiens, UniProt P28335); assay: 5-HT2C competition binding assay ([3H]mesulergine, transfected cell membranes); conditions: [3H]mesulergine, human 5-HT2C membranes; read-out: 5-HT2C Ki (95% CI)
T2 sequence (P28335 33-458): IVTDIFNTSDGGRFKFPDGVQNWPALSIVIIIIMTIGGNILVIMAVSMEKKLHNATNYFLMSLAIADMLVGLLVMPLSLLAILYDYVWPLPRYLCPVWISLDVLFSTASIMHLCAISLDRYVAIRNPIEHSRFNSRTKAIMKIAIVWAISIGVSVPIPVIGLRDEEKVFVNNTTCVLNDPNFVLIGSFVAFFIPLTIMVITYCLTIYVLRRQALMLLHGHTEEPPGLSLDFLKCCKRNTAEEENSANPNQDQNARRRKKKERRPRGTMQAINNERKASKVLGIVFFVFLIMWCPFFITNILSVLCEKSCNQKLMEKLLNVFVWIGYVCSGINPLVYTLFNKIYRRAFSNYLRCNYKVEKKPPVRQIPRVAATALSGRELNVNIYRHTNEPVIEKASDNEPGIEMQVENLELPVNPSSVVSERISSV

Cc1cccc(N2CCN(CCCNC(=O)C3CC4C=CC3C4)CC2)c1C (stereo not drawn) [Norbo-4, endo-N-(3-(4-(2,3-dimethylphenyl)piperazin-1-yl)propyl)bicyclo[2.2.1]hept-5-ene-2-carboxamide]
time in chimney ([1]; 15 mg/kg i.p.): significant increase of time in chimney | time in chimney ([1]; 30 mg/kg i.p.): significant increase of time in chimney; also recorded: disturbed the behavior of mice | 5-HT1A Receptor G-Protein Stimulation Emax (%) ± SEM [2]: 181 ± 2.4 % | EC50 ([2]; read-out: 5-HT1A Receptor G-Protein Stimulation EC50 (95% CI)): 181 nM | percentage of time spent in open arms (EPM) ([3]; 3.75 mg/kg i.p.): significant increase in time spent in open arms; also recorded: increased the percentage of open arm exploration time | percentage of the open arm entries (EPM) ([3]; 15 mg/kg i.p.): increase the percentage of open arm entries | percentage of time spent in open arms (EPM) ([3]; 15 mg/kg i.p.): significant increase in time spent in open arms; also recorded: increased the percentage of open arm exploration time | Ki [4]: 2090 nM
